Source: US20160060322A1, “RELAXIN-LIKE PEPTIDES AND USES THEREOF” (ANGION BIOMEDICA CORP., priority 2012, published 2016)

System: HEK-293T cells
Assay: cAMP production in parental HEK-293T cells lacking RXFP1
Format: cell-based
Conditions: parental HEK-293T cells (lack RXFP1); H2R 10 ng/mL

## H2R: ~6 kd peptide hormone, 24 amino acid A chain (SEQ ID NO:5) and 29 amino acid B chain (SEQ ID NO:6) linked by disulfide bridges (chain 1 ZLYSALANKCCHVGCTKRSLARFC; chain 2 DSWMEEVIKLCGRELVRAQIAICGMSTWS; disulfide bridges; listed as Homo sapiens)
  cAMP response in parental cells: no cAMP response
